Measurements as given in US6410751B1, “Water soluble tri-substituted 1, 2-dioxetane compounds having increased storage stability, synthetic processes and intermediates” (Lumigen, Inc., priority 1995, dated 2002).
Like-named read-outs stand apart in the source and are kept apart here.

What was measured:
[1] = Storage stability of dioxetane formulations measured by chemiluminescent enzyme assay; format: physicochemical; settings: for % of Dioxetane Remaining: 0.5 mM dioxetane formulation pH 10, temperature not given (FIG. 5: 25° C.)
Text: Storage stability is related to the rate of decomposition of the dioxetane due to spontaneous reaction and is an intrinsic property. Decomposition of triggerable dioxetanes can also be induced by the presence of trace quantities of agents which catalyze the removal of a protecting group and thus initiate the decomposition. Storage stability of a dioxetane can be assessed by measuring the quantity of dioxetane present in a known sample at periodic intervals. The measurement can take any form known which measures a property relatable to the quantity of dioxetane. Techniques such as spectrophotometry, NMR spectrometry and the like are exemplary. A convenient means is to measure the amount of light produced by reacting a known quantity of dioxetane with a triggering agent under a standard set of conditions. A decrease in the amount or intensity of light emitted signals a loss of dioxetane compound.
A fluoro-substituted analog of dioxetane 1, identified as 3, a chloro-substituted analog 4 and a methyl-substituted analog 5 have been prepared and their storage stability evaluated over several weeks. Storage stability of a solution of 1 was measured for comparison. All solutions were prepared with the same composition, differing only in the identity of the dioxetane. Stability was evaluated by chemiluminescent enzyme assay with a fixed volume of test solution and fixed limiting amount of alkaline phosphatase and measuring the plateau light intensity at 25° C.
Formulations comprising 0.1 mg/mL Enhancer A, 0.88 mM Mg^+2 , 0.2 M 2-amino-2-methyl-1-propanol, pH 10, 0.1% Triton X-100 and 0.5 mM dioxetane 1, 3, 4 and 5, respectively, were prepared and stored in opaque polyethylene bottles at 4° C., 25° C. and 40° C. Twenty four 100 μL aliquots from each bottle were pipetted into the wells of a 96 well plate and the solutions incubated at 37° C. Into each well 10 μL solutions containing 8×10^−17 moles of AP were injected and light intensity integrated over five hours. Data are the average of all 24 wells. The experiment was repeated at the indicated time intervals for each dioxetane. The results in FIG. 5 show the comparative stability of the three formulations at 25° C.

[2] = Enhancement of luminescent signal of a reagent based on dioxetane 1 by enhancers and fluorescers; settings: for Factor of increase of luminescent signal: reagent based on dioxetane 1; for Enhancement Factor: 1 mg/mL Enhancer A
Text: As part of the optimization of a reagent based on dioxetane 1, a number of enhancer materials was examined. At pH 9.6, Enhancer A (1-trioctylphosphoniummethyl-4-tributylphosphoniummethylbenzene dichloride) increased the luminescent signal by a factor of 6.2, and Enhancer B (poly(vinylbenzyltributylphosphonium chloride)) increased the signal by a factor of 19.7. At pH 10.0, Enhancer A increased the signal by a factor of 4.8, and Enhancer B increased the signal by a factor of 18.9.
Tables 2 and 3 show the extent of enhancement by pyranine and fluorescein, respectively, in the presence of 1 mg/mL of Enhancer A.

[3] = Reagent carryover in capsule chemistry analysis system (TECHNICON IMMUNO 1 TSH method, luminescence detection); settings: R3 reagent with 0.2 mM CSPD; 3 mM pyranine omitted from test N only
Description: The experiments described below were performed on a prototype capsule chemistry analysis system essentially as described by Kumar et al in U.S. Pat. No. 5,399,497, with the detection system configured to measure light emission (luminescence). The method and apparatus comprises feeding a stream of fluid segments through a Teflon tube, where the tube has an isolating layer of fluorocarbon oil on the inner surface. Sample and reagents are aspirated into this tube, and the resulting liquid segments are moved through the tube. […] The detection system was comprised of a photon counter and a fiber optic read head, in which the fibers were radially arranged around the Teflon tube to maximize the efficiency of light collection.
The TECHNICON IMMUNO 1® TSH method (Bayer Corporation, Tarrytown, N.Y., USA) was used as a representative immunoassay method for the testing of luminogenic reagents. […] The particles were then exposed to the luminogenic reagent, which contained a substrate for ALP, and luminescence was measured.
R1 (10.4 μl of serum-based solution containing fluorescein-labeled antibody to TSH), R2 (10.4 μl of serum-based solution containing antibody to TSH conjugated with ALP) and S (7.2 μl of serum sample) were aspirated into the second segment. […] The fifth segment was R3, of the composition described above, with the key elements being the luminogenic substrate and the luminescence enhancer. […]

alkaline phosphatase = assay: Performance of detection reagent in assays for AP in the capsule chemistry test system; format: biochemical; settings: fluorescein-labeled alkaline phosphatase conjugate captured onto magnetic particles
Description: The experiments described below were performed on a prototype capsule chemistry analysis system essentially as described by Kumar et al in U.S. Pat. No. 5,399,497, with the detection system configured to measure light emission (luminescence). The method and apparatus comprises feeding a stream of fluid segments through a Teflon tube, where the tube has an isolating layer of fluorocarbon oil on the inner surface. Sample and reagents are aspirated into this tube, and the resulting liquid segments are moved through the tube. Separation steps and washing steps which are required by heterogeneous immunoassay methods were facilitated by means of magnets, which transferred magnetic particles from one aqueous segment to another. The detection system was comprised of a photon counter and a fiber optic read head, in which the fibers were radially arranged around the Teflon tube to maximize the efficiency of light collection.
A detection reagent incorporating dioxetane 3 was evaluated in a test system as described in Example 7. The test material was a fluorescein-labeled alkaline phosphatase conjugate which was captured onto the magnetic particles.

[4] = aqueous solutions, 25° C., four weeks

O=C([O-])C(CCOC1(c2cccc(OP(=O)([O-])[O-])c2)OOC12C1CC3CC(C1)CC2C3)C(=O)[O-].[Na+].[Na+].[Na+].[Na+] (centres unmarked) [Dioxetane 1]
% of Dioxetane Remaining ([1]; 0 wks): 100%
% of Dioxetane Remaining ([1]; 1 wk): 94.8%
% of Dioxetane Remaining ([1]; 2 wks): 91.1%
% of Dioxetane Remaining ([1]; 3 wks): 87.5%
% of Dioxetane Remaining ([1]; 4 wks): 84.1%
% of Dioxetane Remaining ([1]; 5 wks): 81.8%
% of Dioxetane Remaining ([1]; 6 wks): 80.7%
% of Dioxetane Remaining ([1]; 9 wks): 76.5%
Decomposition on storage (in words) ([1]; alkaline buffer, 25° C., two weeks): significant decomposition
Storage stability compared with other dioxetanes (in words) ([1]; aqueous buffer solutions, 25° C.): significantly less stable than a related compound, Lumigen PPD

CCCCCCCC[P+](CCCCCCCC)(CCCCCCCC)Cc1ccc(C[P+](CCCC)(CCCC)CCCC)cc1.[Cl-].[Cl-] [Enhancer A, 1-trioctylphosphoniummethyl-4-tributylphosphoniummethylbenzene dichloride]
Factor of increase of luminescent signal ([2]; pH 9.6): 6.2
Factor of increase of luminescent signal ([2]; pH 10.0): 4.8

O=S(=O)([O-])c1cc(O)c2ccc3c(S(=O)(=O)[O-])cc(S(=O)(=O)[O-])c4ccc1c2c34.[Na+].[Na+].[Na+] [Pyranine]
Enhancement Factor ([2]; 0.01 mM fluorescer): 3.7
Enhancement Factor ([2]; 0.02 mM fluorescer): 7.3
Enhancement Factor ([2]; 0.03 mM fluorescer): 9.8
Enhancement Factor ([2]; 0.04 mM fluorescer): 12.2
Enhancement Factor ([2]; 0.05 mM fluorescer): 13.7
Enhancement by fluorescer alone ([2]; fluorescer 3 mM, without Enhancer A): about ten-fold
Factor by which signal in test N was lower when the fluorescent enhancer was omitted [3]: approximately 10

[4-(3,3-biscarboxy)-3-chloropropoxy)-4-(3-phosphoryloxyphenyl)]spiro[1,2-dioxetane-3,2′-tricyclo [3.3.1.1^3,7]decane], tetrasodium salt [Dioxetane 4]
Storage stability compared with other dioxetanes (in words) [1]: worse than that of 1

[4-(3,3-biscarboxy)-3-fluoropropoxy)-4-(3-phosphoryloxyphenyl)]spiro[1,2-dioxetane-3,2′-tricyclo [3.3.1.1^3,7]decane], tetrasodium salt [Dioxetane 3]
Assay performance (sensitivity, dynamic range, precision) in words (alkaline phosphatase): sensitivity, dynamic range and precision comparable to the results using dioxetane 1
Decomposition on storage (in words) [1, 4]: essentially no decomposition

[4-(3,3-biscarboxybutoxy)-4-(3-phosphoryloxyphenyl)]spiro[1,2-dioxetane-3,2′-tricyclo[3.3.1.1^3,7]-decane], tetrasodium salt [Dioxetane 5]
Decomposition on storage (in words) [1, 4]: essentially no decomposition
